Measured values from patent US20240058387A1, “CULTURE MEDIUM COMPOSITION FOR AMPLIFYING AND MAINTAINING SELF-RENEWAL CAPACITY AND DIFFERENTIATION POTENTIAL OF HSCS AND APPLICATION THEREOF” (EDIGENE (GUANGZHOU) INC., priority 2020, published 2024).

Test system: mobilized peripheral blood-derived CD34+ cells
Experiment: Cell counting: absolute number of marker-positive cells, comparison with UM171 and SR1
Assay type: cell-based, human
Settings: FIG. 5B; 8 days; AG1296 at 1 μM; UM171 concentration not given
Description: According to the solubility and required solvent indicated in the instructions of the small molecule inhibitor (see Table 1 for the Cat. number of the small molecule inhibitor), the preparation of the small molecule inhibitor stock solution was carried out. Next, the hematopoietic stem cell medium was prepared: SFEM II medium (stem cell, Cat. number: 09655)+50 ng/ml growth factor Flt-3L (PeProtech, Cat. number: 300-100UG)+50 ng/ml growth factor SCF (PeProtech, Cat. number): 300-07-100UG)+50 ng/ml growth factor TPO (PeProtech, Cat. number: 300-18-100UG)+10 ng/ml interleukin IL-6 (PeProtech, Cat. number: 200-06-20UG)+1% bispecific antibody (HyClone, Cat. No.: sv30010). According to the set concentration gradient of the small molecule inhibitor, the stock solution and the basal medium were used to prepare the medium containing different concentrations of the small molecule inhibitor.
First, the prepared medium was added to a 24-well plate (Corning, Cat. number: 3473), 950 μl per well, and placing it in a carbon dioxide incubator (Thermo, model: 3111) to preheat; resuspending the spare umbilical cord Blood-derived HSCs of Example 1 with SFEM 11+50 ng/ml Flt-3L+50 ng/ml SCF+50 ng/ml TPO+10 ng/ml IL-6+1% bispecific antibody, calculating the medium volume to be added according to 50 μl cell suspension per well and 2*10^5/m1 cell density per well. For example, when the final volume of the cell culture solution per well was 1 ml, the total number of cells per well was 2*10^5 cells calculated according to the cell density per well, and the density of the […] of cell suspension supplemented to each well is 4*10^6/ml. The density of the spare HSCs of Example 1 was adjusted to the calculated density of the cell suspension, and adding it; taking out the preheated medium from the incubator, adding 50 μl of the cell suspension to each well, and after mixing, using the microscope (OLYMPUS, model: CKX53) to observe the cells state, and then putting it into an incubator for culturing.
On the mobilized peripheral blood-derived CD34+ cells sorted in Example 1, the screened-out inhibitor AG1296 and literature-reported (Fares I, et al. Science. 2014; Boitano A E, et al. Science. 2010) inhibitors UM171 and SR1 were compared in the same way as Example 2. Eight days after the induction of the small molecule inhibitor, the expression of LT-HSCs cell surface markers (CD34+CD45+CD90+CD45RA−CD38−) was detected by flow cytometry using the same method as in Example 3. After 8 days of culture, 20 μL of cell suspension was taken into a cell counter (Nexcelom, model: Cellometer K2) and counted, and the absolute numbers of the final CD34+ cells and LT-HSCs on […] were calculated (absolute number of cells=total number of cells*stemness ratio).

For `Cn1nnc(-c2ccc3c(c2)[nH]c2nc(Cc4ccccc4)nc(NC4CCC(N)CC4)c23)n1` (stereo not shown) [UM171], the “absolute number of CD34+ cells” value was “best effect”.
